# Data taken from patent publication US20200055897A1, “MODIFIED PEPTOIDS” (Technion Research & Development Foundation Limited, priority 2017, published 2020).
# Where two headings read alike, the source gives them in different places. Starred links: 1 amine or outer side, 2 acyl side, 3 side chain; linkers in the order of their positions; H or OH if unused. Non-standard residues stand in square brackets, D forms with d. Residues, ends and D or L forms follow the SMILES beside them. *: point of attachment. N(1S-cyclohexylethyl)Gly = C[C@H](NCC(=O)O)C1CCCCC1; Gly(N-CH2CH2C6H4-4Cl) = O=C(O)CNCCc1ccc(Cl)cc1; NMeGly(N-(2-F-benzyl)) = CN(CC(=O)*)Cc1ccccc1F; Acetyl(2-(piperazin-1-yl)) = O=C(CN1CCNCC1)*; Hydrazinoacetyl = O=C(CNN[*:1])[*:2]; Gly(Nα-NHCO2Et) = CCOC(=O)NNCC(=O)O; Nrpe = C[C@@H](NCC(=O)O)c1ccccc1; Nspe = C[C@H](NCC(=O)O)c1ccccc1; X1 = O=C(CN1CCN([*:1])CC1)[*:2]; Ethoxycarbonyl = CCOC(=O)*; Nphe = O=C(O)CNCc1ccccc1; X5 = NC(=O)CN1CCN(*)CC1; X3 = O=C(CN1CCCNCC1)*
# Assay: General method for water solubility test (gradual addition of water to 1 mg peptoid until clear)
# Type: physicochemical
# Description: 1 mg peptoid was placed in an Eppendorf container and water was added gradually (e.g., […] per addition) until a clear solution was obtained. The solubility test was repeated three times and average values are presented. The limit of the test was typically 2.0×10^2 mg/liter (i.e., 1 mg per 5 ml).
# Water solubility tests were carried out by a gradual addition of 5 μl distilled water to 1 mg peptoid until a clear solution was obtained. This assay was repeated three times and results were averaged.
# [1] = water, average of three tests, limit of test 2.0×10^2 mg/liter, read-out: Water solubility
solubility,Compound,further results
< 0.2 mg/mL,"C[C@H](NCC(=O)N(CC(=O)N(CC(=O)N(CC(=O)N(CC(N)=O)[C@@H](C)C1CCCCC1)[C@@H](C)C1CCCCC1)[C@@H](C)C1CCCCC1)[C@@H](C)C1CCCCC1)C1CCCCC1 [Peptoid P10, (Nsch)5, reference compound]",–
< 0.2 mg/mL,"C[C@H](c1ccccc1)N(CCC(N)=O)C(=O)CCN(C(=O)CCN(C(=O)CCN(C(=O)CCN(C(=O)CCN[C@H](C)c1ccccc1)[C@H](C)c1ccccc1)[C@H](C)c1ccccc1)[C@H](C)c1ccccc1)[C@H](C)c1ccccc1 [Peptoid P24, reference compound]",–
< 0.2 mg/mL,"C[C@@H](C1CCCCC1)N(CC(=O)N(CCc1ccc(Cl)cc1)CC(=O)N(CC(=O)N(CC(=O)N(CC(=O)N1CCN(CC(N)=O)CC1)Cc1ccccc1)Cc1ccccc1)[C@@H](C)C1CCCCC1)C(=O)CN(C)Cc1ccccc1F [Peptoid P17, Npz-(Npm)2-Nsch-Ncpe-Nsch-Nfpm] ({NMeGly(N-(2-F-benzyl))}-[N(1S-cyclohexylethyl)Gly][Gly(N-CH2CH2C6H4-4Cl)][N(1S-cyclohexylethyl)Gly][Nphe][Nphe]-X5)",–
~700 µM,"C[C@@H](c1ccccc1)N1CC(=O)N(CC(N)=O)CCCN2CCN(CC2)CC(=O)N([C@@H](C)c2ccccc2)CC(=O)N([C@@H](C)c2ccccc2)CC(=O)N([C@@H](C)c2ccccc2)CC(=O)N([C@@H](C)c2ccccc2)CC(=O)N([C@@H](C)c2ccccc2)CC1=O [Peptoid P4, Npl-(Nspe)6-Npz (cyclic)]",–
< 0.2 mg/mL,"C[C@@H](c1cccc2ccccc12)N(CC(N)=O)C(=O)CN(C(=O)CN(C(=O)CN(C(=O)CN1CCCNCC1)[C@@H](C)c1cccc2ccccc12)[C@@H](C)c1cccc2ccccc12)[C@@H](C)c1cccc2ccccc12 [Peptoid P14, (Ns1npe)4-Nhpz]",–
103 mg/mL,C[C@H](c1ccccc1)N(CCC(N)=O)C(=O)CCN(C(=O)CCN(C(=O)CCN(C(=O)CCN(C(=O)CCN(C(=O)CN1CCN(C(=O)CN2CCNCC2)CC1)[C@H](C)c1ccccc1)[C@H](C)c1ccccc1)[C@H](C)c1ccccc1)[C@H](C)c1ccccc1)[C@H](C)c1ccccc1 [Peptoid P26],–
< 0.2 mg/mL,"C[C@@H](C1CCCCC1)N(CC(N)=O)C(=O)CN(C(=O)CN(C(=O)CN(C(=O)CN(C(=O)CN1CCNCC1)[C@@H](C)C1CCCCC1)[C@@H](C)C1CCCCC1)[C@@H](C)C1CCCCC1)[C@@H](C)C1CCCCC1 [Peptoid P15, (Nsch)5-Npz]",–
< 0.2 mg/mL,"C[C@@H](C1CCCCC1)N(CC(=O)N(CCc1ccc(Cl)cc1)CC(=O)N(CC(=O)N(CC(=O)N(CC(N)=O)Cc1ccccc1)Cc1ccccc1)[C@@H](C)C1CCCCC1)C(=O)CN(C)Cc1ccccc1F [Peptoid P11, (Npm)2-Nsch-Ncpe-Nsch-Nfpm, reference compound] ({NMeGly(N-(2-F-benzyl))}-[N(1S-cyclohexylethyl)Gly][Gly(N-CH2CH2C6H4-4Cl)][N(1S-cyclohexylethyl)Gly][Nphe][Nphe]-NH2)",–
~900 µM,"C[C@H](NCC(=O)N(CC(=O)N(CC(=O)N(CC(=O)N(CC(=O)N(CC(=O)N1CCN(CC(N)=O)CC1)[C@@H](C)c1ccccc1)[C@@H](C)c1ccccc1)[C@@H](C)c1ccccc1)[C@@H](C)c1ccccc1)[C@@H](C)c1ccccc1)c1ccccc1 [Peptoid P3, Npz-(Nspe)6] (H-[Nspe][Nspe][Nspe][Nspe][Nspe][Nspe]-X5)",–
< 0.2 mg/mL,"C[C@H](NCC(=O)N(CC(=O)N(CC(=O)N(CC(N)=O)[C@@H](C)c1cccc2ccccc12)[C@@H](C)c1cccc2ccccc12)[C@@H](C)c1cccc2ccccc12)c1cccc2ccccc12 [Peptoid P9, (Ns1npe)4, reference compound]",–
< 0.2 mg/mL,"C[C@@H](C1CCCCC1)N(CC(N)=O)C(=O)CN(C(=O)CN(C(=O)CN(C(=O)CN(C(=O)CN1CCCNCC1)[C@@H](C)C1CCCCC1)[C@@H](C)C1CCCCC1)[C@@H](C)C1CCCCC1)[C@@H](C)C1CCCCC1 [Peptoid P16, (Nsch)5-Nhpz]",–
< 0.2 mg/mL,"C[C@H](NCC(=O)N(CC(=O)N(CC(=O)N(CC(=O)N1CCN(CC(N)=O)CC1)[C@@H](C)c1cccc2ccccc12)[C@@H](C)c1cccc2ccccc12)[C@@H](C)c1cccc2ccccc12)c1cccc2ccccc12 [Peptoid P13, Npz-(Ns1npe)4]",–
73.5 mg/mL,"C[C@@H](C1CCCCC1)N(CC(N)=O)C(=O)CN(C(=O)CN(C(=O)CN(C(=O)CN(C(=O)CN1CCN(C(=O)CN2CCN(C(=O)CN3CCNCC3)CC2)CC1)[C@@H](C)C1CCCCC1)[C@@H](C)C1CCCCC1)[C@@H](C)C1CCCCC1)[C@@H](C)C1CCCCC1 [Peptoid P22, (Nsch)5-(Npz)3] ({Acetyl(2-(piperazin-1-yl))}-[X1][X1][N(1S-cyclohexylethyl)Gly][N(1S-cyclohexylethyl)Gly][N(1S-cyclohexylethyl)Gly][N(1S-cyclohexylethyl)Gly][N(1S-cyclohexylethyl)Gly]-NH2)",–
84.4 mg/mL,"C[C@@H](C1CCCCC1)N(CC(=O)N(CCc1ccc(Cl)cc1)CC(=O)N(CC(=O)N(CC(=O)N(CC(=O)N1CCN(CC(=O)N2CCN(CC(N)=O)CC2)CC1)Cc1ccccc1)Cc1ccccc1)[C@@H](C)C1CCCCC1)C(=O)CN(C)Cc1ccccc1F [Peptoid P20, (Npz)2-(Npm)2-Nsch-Ncpe-Nsch-Nfpm] ({NMeGly(N-(2-F-benzyl))}-[N(1S-cyclohexylethyl)Gly][Gly(N-CH2CH2C6H4-4Cl)][N(1S-cyclohexylethyl)Gly][Nphe][Nphe][X1]-X5)",–
–,"C[C@@H](c1ccccc1)N(CC(N)=O)C(=O)CN(C(=O)CN(C(=O)CN(C(=O)CN(C(=O)CN(C(=O)CN1CCN(C(=O)CN2CCN(C(=O)CN3CCNCC3)CC2)CC1)[C@@H](C)c1ccccc1)[C@@H](C)c1ccccc1)[C@@H](C)c1ccccc1)[C@@H](C)c1ccccc1)[C@@H](C)c1ccccc1 [Peptoid P6, (Nspe)6-(Npz)3] ({Acetyl(2-(piperazin-1-yl))}-[X1][X1][Nspe][Nspe][Nspe][Nspe][Nspe][Nspe]-NH2)",Water solubility at pH 10.5 (in words) (pH 10.5): highly soluble; Water solubility relative to that of P2 at pH 10.5 (pH 10.5): 106 times; solubility [1]: 88.6 mg/mL
49.6 mg/mL,"C[C@@H](c1ccccc1)N(CC(N)=O)C(=O)CN(C(=O)CN(C(=O)CN(C(=O)CN(C(=O)CN(C(=O)CN1CCCNCC1)[C@@H](C)c1ccccc1)[C@@H](C)c1ccccc1)[C@@H](C)c1ccccc1)[C@@H](C)c1ccccc1)[C@@H](C)c1ccccc1 [Peptoid P7, (Nspe)6-Nhpz] (X3-[Nspe][Nspe][Nspe][Nspe][Nspe][Nspe]-NH2)",Water solubility relative to that of P2: about 50 times
< 0.2 mg/mL,C[C@H](c1ccccc1)N(CCC(N)=O)C(=O)CCN(C(=O)CCN(C(=O)CCN(C(=O)CCN(C(=O)CCN(C(=O)CN1CCNCC1)[C@H](C)c1ccccc1)[C@H](C)c1ccccc1)[C@H](C)c1ccccc1)[C@H](C)c1ccccc1)[C@H](C)c1ccccc1 [Peptoid P25],–
< 0.2 mg/mL,"C[C@@H](c1cccc2ccccc12)N(CC(N)=O)C(=O)CN(C(=O)CN(C(=O)CN(C(=O)CN1CCNCC1)[C@@H](C)c1cccc2ccccc12)[C@@H](C)c1cccc2ccccc12)[C@@H](C)c1cccc2ccccc12 [Peptoid P12, (Ns1npe)4-Npz]",–
< 0.2 mg/mL,"CCOC(=O)NNCC(=O)N(CC(=O)N(CC(=O)N(CC(=O)N(CC(=O)N(CC(N)=O)[C@H](C)c1ccccc1)NC(=O)OCC)[C@H](C)c1ccccc1)NC(=O)OCC)[C@H](C)c1ccccc1 [Peptoid P28, reference compound] (Ethoxycarbonyl-[Hydrazinoacetyl][Nrpe][Gly(Nα-NHCO2Et)][Nrpe][Gly(Nα-NHCO2Et)][Nrpe]-NH2)",–
< 0.2 mg/mL,"C[C@H](NCC(=O)N(CC(=O)N(CC(=O)N(CC(=O)N(CC(=O)N(CC(N)=O)[C@@H](C)c1ccccc1)[C@@H](C)c1ccccc1)[C@@H](C)c1ccccc1)[C@@H](C)c1ccccc1)[C@@H](C)c1ccccc1)c1ccccc1 [Peptoid P1, (Nspe)6, reference compound] (H-[Nspe][Nspe][Nspe][Nspe][Nspe][Nspe]-NH2)",–
–,C[C@H](c1ccccc1)N(CCC(N)=O)C(=O)CCN(C(=O)CCN(C(=O)CCN(C(=O)CCN(C(=O)CCN(C(=O)CN1CCN(C(=O)CN2CCN(C(=O)CN3CCNCC3)CC2)CC1)[C@H](C)c1ccccc1)[C@H](C)c1ccccc1)[C@H](C)c1ccccc1)[C@H](C)c1ccccc1)[C@H](C)c1ccccc1 [Peptoid P27],solubility [1]: 196 mg/mL
7.52 mg/mL,"C[C@@H](C1CCCCC1)N(CC(N)=O)C(=O)CN(C(=O)CN(C(=O)CN(C(=O)CN(C(=O)CN1CCN(C(=O)CN2CCNCC2)CC1)[C@@H](C)C1CCCCC1)[C@@H](C)C1CCCCC1)[C@@H](C)C1CCCCC1)[C@@H](C)C1CCCCC1 [Peptoid P19, (Nsch)5-(Npz)2] ({Acetyl(2-(piperazin-1-yl))}-[X1][N(1S-cyclohexylethyl)Gly][N(1S-cyclohexylethyl)Gly][N(1S-cyclohexylethyl)Gly][N(1S-cyclohexylethyl)Gly][N(1S-cyclohexylethyl)Gly]-NH2)",–
50.6 mg/mL,CCOC(=O)NN(CC(=O)N(CC(N)=O)[C@H](C)c1ccccc1)C(=O)CN(C(=O)CN(NC(=O)OCC)C(=O)CN(C(=O)CN(NC(=O)OCC)C(=O)CN1CCNCC1)[C@H](C)c1ccccc1)[C@H](C)c1ccccc1 [Peptoid P29] ({Acetyl(2-(piperazin-1-yl))}-[Gly(Nα-NHCO2Et)][Nrpe][Gly(Nα-NHCO2Et)][Nrpe][Gly(Nα-NHCO2Et)][Nrpe]-NH2),–
135 mg/mL,"C[C@@H](C1CCCCC1)N(CC(=O)N(CCc1ccc(Cl)cc1)CC(=O)N(CC(=O)N(CC(=O)N(CC(=O)N1CCN(CC(=O)N2CCN(CC(=O)N3CCN(CC(N)=O)CC3)CC2)CC1)Cc1ccccc1)Cc1ccccc1)[C@@H](C)C1CCCCC1)C(=O)CN(C)Cc1ccccc1F [Peptoid P23, (Npz)3-(Npm)2-Nsch-Ncpe-Nsch-Nfpm] ({NMeGly(N-(2-F-benzyl))}-[N(1S-cyclohexylethyl)Gly][Gly(N-CH2CH2C6H4-4Cl)][N(1S-cyclohexylethyl)Gly][Nphe][Nphe][X1][X1]-X5)",–
